Legend:
[1] = target: EDG6 (Homo sapiens, UniProt O95977); test: gpcrMAX PathHunter beta-arrestin
[2] = system: CNS:SNB-75; set-up: method as in earlier work; details: NCI-60 panel; ref [4],[5],[6],[7]; cited from earlier work
[3] = target: KISS1R (Homo sapiens, UniProt Q969F8); test: gpcrMAX PathHunter beta-arrestin
[4] = target: NPFFR1 (Homo sapiens, UniProt Q9GZQ6); test: gpcrMAX PathHunter beta-arrestin
[5] = target: HTR1A (Homo sapiens, UniProt P08908); test: gpcrMAX PathHunter beta-arrestin
[6] = system: LE:K-562; set-up: method as in earlier work; details: NCI-60 panel; ref [4],[5],[6],[7]; cited from earlier work
[7] = target: AGTRL1 (Homo sapiens, UniProt P35414); test: gpcrMAX PathHunter beta-arrestin
[8] = system: OV:NCI/ADR-RES; set-up: method as in earlier work; details: NCI-60 panel; ref [4],[5],[6],[7]; cited from earlier work
[9] = target: FPRL1 (Homo sapiens, UniProt P25090); test: gpcrMAX PathHunter beta-arrestin
[10] = target: P2RY2 (Homo sapiens, UniProt P41231); test: gpcrMAX PathHunter beta-arrestin
Sequence of P2RY2 (P41231 whole entry): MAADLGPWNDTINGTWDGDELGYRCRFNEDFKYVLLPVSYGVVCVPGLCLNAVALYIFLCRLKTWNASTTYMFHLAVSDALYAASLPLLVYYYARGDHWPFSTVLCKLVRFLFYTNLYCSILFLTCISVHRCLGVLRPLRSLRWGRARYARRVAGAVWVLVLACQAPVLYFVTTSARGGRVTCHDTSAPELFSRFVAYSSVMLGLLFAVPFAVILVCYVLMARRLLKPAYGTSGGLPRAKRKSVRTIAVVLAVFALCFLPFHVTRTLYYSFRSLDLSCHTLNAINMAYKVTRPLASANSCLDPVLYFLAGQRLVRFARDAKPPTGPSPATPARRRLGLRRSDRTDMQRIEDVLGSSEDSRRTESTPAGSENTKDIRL

[11] = target: EDNRA (Homo sapiens, UniProt P25101); test: gpcrMAX PathHunter beta-arrestin
[12] = system: BR:BT-549; set-up: method as in earlier work; details: NCI-60 panel; ref [4],[5],[6],[7]; cited from earlier work
[13] = target: GCGR (Homo sapiens, UniProt P47871); test: gpcrMAX PathHunter beta-arrestin
Sequence of GCGR (P47871 26-477): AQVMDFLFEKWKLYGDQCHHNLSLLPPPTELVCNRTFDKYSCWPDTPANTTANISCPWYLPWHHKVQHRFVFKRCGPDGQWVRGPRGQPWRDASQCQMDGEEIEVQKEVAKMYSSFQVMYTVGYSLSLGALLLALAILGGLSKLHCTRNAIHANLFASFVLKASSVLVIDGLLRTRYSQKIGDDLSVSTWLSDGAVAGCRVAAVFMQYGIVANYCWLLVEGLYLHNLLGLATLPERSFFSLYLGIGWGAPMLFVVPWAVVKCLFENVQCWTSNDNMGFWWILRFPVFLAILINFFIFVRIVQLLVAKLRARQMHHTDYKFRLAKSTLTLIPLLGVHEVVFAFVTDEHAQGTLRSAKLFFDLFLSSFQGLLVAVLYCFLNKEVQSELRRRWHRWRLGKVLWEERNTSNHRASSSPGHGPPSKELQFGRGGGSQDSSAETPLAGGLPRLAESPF

[14] = target: NPBWR1 (Homo sapiens, UniProt P48145); test: gpcrMAX PathHunter beta-arrestin
Sequence of NPBWR1 (P48145 whole entry): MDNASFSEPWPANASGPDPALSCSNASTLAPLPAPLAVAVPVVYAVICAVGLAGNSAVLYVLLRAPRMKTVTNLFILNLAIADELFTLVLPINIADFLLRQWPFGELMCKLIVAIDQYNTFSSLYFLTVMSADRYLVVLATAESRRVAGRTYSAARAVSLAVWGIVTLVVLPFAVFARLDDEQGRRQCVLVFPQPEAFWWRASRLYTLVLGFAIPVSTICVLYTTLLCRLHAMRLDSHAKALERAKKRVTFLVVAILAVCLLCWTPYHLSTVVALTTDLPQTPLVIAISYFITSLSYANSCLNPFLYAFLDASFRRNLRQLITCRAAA

[15] = target: TRHR (Homo sapiens, UniProt P34981); test: gpcrMAX PathHunter beta-arrestin
[16] = target: NPBWR2 (Homo sapiens, UniProt P48146); test: gpcrMAX PathHunter beta-arrestin
Sequence of NPBWR2 (P48146 whole entry): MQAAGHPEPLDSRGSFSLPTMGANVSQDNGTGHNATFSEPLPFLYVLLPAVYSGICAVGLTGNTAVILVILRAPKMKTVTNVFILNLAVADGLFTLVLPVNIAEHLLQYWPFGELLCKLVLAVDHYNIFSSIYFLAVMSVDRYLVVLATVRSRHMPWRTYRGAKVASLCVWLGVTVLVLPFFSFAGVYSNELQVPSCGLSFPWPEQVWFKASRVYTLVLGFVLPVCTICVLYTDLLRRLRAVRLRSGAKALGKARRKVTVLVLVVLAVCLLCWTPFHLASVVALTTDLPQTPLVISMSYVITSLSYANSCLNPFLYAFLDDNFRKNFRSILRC

[17] = target: BRS3 (Homo sapiens, UniProt P32247); test: gpcrMAX PathHunter beta-arrestin
Sequence of BRS3 (P32247 whole entry): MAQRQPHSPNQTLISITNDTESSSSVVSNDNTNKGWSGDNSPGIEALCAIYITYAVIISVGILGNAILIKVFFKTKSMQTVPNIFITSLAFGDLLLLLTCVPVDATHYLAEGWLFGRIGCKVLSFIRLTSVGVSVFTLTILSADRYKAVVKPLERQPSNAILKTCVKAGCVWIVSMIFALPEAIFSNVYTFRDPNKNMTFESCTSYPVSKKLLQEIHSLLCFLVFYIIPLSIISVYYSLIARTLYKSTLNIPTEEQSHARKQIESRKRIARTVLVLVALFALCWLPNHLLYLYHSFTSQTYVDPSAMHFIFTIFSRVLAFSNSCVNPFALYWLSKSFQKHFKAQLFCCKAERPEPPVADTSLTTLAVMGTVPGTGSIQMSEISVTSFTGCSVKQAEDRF

[18] = target: MCHR1 (Homo sapiens, UniProt Q99705); test: gpcrMAX PathHunter beta-arrestin
[19] = target: VIPR2 (Homo sapiens, UniProt P41587); test: gpcrMAX PathHunter beta-arrestin
[20] = target: ADRA2C (Homo sapiens, UniProt P18825); test: gpcrMAX PathHunter beta-arrestin
[21] = target: ADRB1 (Homo sapiens, UniProt P08588); test: gpcrMAX PathHunter beta-arrestin
[22] = target: AVPR1A (Homo sapiens, UniProt P37288); test: gpcrMAX PathHunter beta-arrestin
Sequence of AVPR1A (P37288 whole entry): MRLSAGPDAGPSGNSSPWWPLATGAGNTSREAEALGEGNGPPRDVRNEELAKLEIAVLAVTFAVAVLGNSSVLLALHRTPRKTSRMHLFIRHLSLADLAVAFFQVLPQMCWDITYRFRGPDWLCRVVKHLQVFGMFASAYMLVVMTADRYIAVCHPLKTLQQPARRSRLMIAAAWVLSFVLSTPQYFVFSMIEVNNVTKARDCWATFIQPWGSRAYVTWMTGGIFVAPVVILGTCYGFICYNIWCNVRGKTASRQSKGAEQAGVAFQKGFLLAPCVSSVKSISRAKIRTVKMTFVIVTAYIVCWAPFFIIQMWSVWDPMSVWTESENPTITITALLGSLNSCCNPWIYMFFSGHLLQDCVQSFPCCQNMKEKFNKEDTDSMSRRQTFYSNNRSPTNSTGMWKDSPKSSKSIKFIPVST

[23] = target: BDKRB2 (Homo sapiens, UniProt P30411); test: gpcrMAX PathHunter beta-arrestin
[24] = target: CMKLR1 (Homo sapiens, UniProt Q99788); test: gpcrMAX PathHunter beta-arrestin
[25] = target: OPRD1 (Homo sapiens, UniProt P41143); test: gpcrMAX PathHunter beta-arrestin
Sequence of OPRD1 (P41143 whole entry): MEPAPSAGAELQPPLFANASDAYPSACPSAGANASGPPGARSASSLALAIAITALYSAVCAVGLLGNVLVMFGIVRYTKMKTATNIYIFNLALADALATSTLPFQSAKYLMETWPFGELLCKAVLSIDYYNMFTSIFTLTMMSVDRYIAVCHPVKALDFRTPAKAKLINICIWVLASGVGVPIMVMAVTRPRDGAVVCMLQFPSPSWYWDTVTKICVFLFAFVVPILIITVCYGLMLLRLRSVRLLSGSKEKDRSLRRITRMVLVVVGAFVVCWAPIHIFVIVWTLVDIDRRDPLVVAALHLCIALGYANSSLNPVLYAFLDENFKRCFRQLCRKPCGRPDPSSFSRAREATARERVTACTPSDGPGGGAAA

[26] = system: BR:T-47D; set-up: method as in earlier work; details: NCI-60 panel; ref [4],[5],[6],[7]; cited from earlier work
[27] = system: LE:SR; set-up: method as in earlier work; details: NCI-60 panel; ref [4],[5],[6],[7]; cited from earlier work
[28] = target: F2RL3 (Homo sapiens, UniProt Q96RI0); test: gpcrMAX PathHunter beta-arrestin
[29] = system: LC:NCI-H522; set-up: method as in earlier work; details: NCI-60 panel; ref [4],[5],[6],[7]; cited from earlier work
[30] = target: PTAFR (Homo sapiens, UniProt P25105); test: gpcrMAX PathHunter beta-arrestin
Sequence of PTAFR (P25105 whole entry): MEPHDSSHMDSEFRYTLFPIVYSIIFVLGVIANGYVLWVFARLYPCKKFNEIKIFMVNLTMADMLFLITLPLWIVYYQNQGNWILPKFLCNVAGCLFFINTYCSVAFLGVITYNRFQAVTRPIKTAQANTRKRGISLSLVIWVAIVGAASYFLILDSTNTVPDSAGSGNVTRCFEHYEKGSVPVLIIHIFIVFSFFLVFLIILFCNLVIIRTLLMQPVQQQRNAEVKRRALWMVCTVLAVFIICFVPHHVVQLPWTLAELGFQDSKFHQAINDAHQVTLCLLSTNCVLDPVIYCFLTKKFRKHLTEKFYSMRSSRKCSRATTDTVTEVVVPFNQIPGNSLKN

[31] = target: CALCR-RAMP2 (Homo sapiens, UniProt O60895+P30988); test: gpcrMAX PathHunter beta-arrestin
Sequence of CALCR-RAMP2 (P30988 25-474): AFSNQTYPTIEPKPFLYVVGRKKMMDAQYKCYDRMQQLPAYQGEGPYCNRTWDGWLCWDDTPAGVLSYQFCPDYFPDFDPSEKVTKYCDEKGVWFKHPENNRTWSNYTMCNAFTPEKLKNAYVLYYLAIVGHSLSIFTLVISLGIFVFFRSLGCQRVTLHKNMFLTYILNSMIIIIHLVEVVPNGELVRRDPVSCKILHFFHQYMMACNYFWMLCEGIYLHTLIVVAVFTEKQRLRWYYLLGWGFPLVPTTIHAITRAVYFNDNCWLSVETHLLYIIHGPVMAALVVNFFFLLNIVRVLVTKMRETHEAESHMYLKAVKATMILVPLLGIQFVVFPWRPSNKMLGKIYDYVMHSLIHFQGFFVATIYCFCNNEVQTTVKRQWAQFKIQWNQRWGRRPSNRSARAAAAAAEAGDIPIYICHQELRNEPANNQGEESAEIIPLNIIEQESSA
Sequence of CALCR-RAMP2 (O60895 43-175 partner): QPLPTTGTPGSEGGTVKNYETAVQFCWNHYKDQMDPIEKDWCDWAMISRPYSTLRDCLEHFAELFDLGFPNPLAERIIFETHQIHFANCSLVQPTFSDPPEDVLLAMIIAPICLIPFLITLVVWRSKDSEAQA

[32] = system: ME:MALME-3M; set-up: method as in earlier work; details: NCI-60 panel; ref [4],[5],[6],[7]; cited from earlier work
[33] = target: CALCR-RAMP3 (Homo sapiens, UniProt O60896+P30988); test: gpcrMAX PathHunter beta-arrestin
Sequence of CALCR-RAMP3 (P30988 25-474): as the sequence (P30988 25-474) above
Sequence of CALCR-RAMP3 (O60896 24-148 partner): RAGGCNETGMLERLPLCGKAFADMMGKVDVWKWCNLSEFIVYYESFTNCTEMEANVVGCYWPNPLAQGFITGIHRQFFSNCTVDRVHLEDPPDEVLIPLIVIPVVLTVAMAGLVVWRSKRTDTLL

[34] = target: CRHR1 (Homo sapiens, UniProt P34998); test: gpcrMAX PathHunter beta-arrestin
Sequence of CRHR1 (P34998 24-415): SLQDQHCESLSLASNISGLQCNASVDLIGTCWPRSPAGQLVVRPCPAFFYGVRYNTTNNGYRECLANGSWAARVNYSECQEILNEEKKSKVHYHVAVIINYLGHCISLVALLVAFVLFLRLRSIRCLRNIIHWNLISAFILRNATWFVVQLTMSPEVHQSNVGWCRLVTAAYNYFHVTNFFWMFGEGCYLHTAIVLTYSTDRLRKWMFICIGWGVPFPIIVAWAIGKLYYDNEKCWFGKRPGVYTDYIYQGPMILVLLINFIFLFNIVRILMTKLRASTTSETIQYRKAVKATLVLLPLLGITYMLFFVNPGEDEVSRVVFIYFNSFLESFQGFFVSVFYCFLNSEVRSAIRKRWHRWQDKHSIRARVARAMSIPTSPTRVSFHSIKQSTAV

[35] = system: ME:MDA-MB-435; set-up: method as in earlier work; details: NCI-60 panel; ref [4],[5],[6],[7]; cited from earlier work
[36] = target: CXCR6 (Homo sapiens, UniProt O00574); test: gpcrMAX PathHunter beta-arrestin
[37] = target: CCR4 (Homo sapiens, UniProt P51679); test: gpcrMAX PathHunter beta-arrestin
Sequence of CCR4 (P51679 whole entry): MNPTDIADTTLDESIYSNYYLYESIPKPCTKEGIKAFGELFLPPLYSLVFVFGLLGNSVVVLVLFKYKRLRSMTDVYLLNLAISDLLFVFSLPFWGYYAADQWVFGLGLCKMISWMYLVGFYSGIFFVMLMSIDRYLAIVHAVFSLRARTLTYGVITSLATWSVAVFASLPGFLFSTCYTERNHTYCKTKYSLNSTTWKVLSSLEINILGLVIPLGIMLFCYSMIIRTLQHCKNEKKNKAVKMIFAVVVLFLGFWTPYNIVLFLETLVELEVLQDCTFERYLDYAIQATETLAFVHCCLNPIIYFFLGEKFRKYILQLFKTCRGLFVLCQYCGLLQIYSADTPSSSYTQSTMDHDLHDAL

[38] = target: HTR2C (Homo sapiens, UniProt P28335); test: gpcrMAX PathHunter beta-arrestin
[39] = target: PTGER2 (Homo sapiens, UniProt P43116); test: gpcrMAX PathHunter beta-arrestin
Sequence of PTGER2 (P43116 whole entry): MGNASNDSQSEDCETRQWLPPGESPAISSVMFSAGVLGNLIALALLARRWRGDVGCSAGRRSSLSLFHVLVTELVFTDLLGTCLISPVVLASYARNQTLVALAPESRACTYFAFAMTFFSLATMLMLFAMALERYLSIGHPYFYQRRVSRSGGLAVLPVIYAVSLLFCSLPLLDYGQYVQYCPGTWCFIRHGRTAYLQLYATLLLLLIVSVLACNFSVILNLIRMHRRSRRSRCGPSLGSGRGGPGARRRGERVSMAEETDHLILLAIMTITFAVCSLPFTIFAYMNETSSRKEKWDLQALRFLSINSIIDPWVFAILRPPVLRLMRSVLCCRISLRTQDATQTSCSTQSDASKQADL

[40] = target: CXCR3 (Homo sapiens, UniProt P49682); test: gpcrMAX PathHunter beta-arrestin

SMILES: Cc1c(Cl)cccc1NC(=O)c1sc2nc3c(cc2c1N)C(=O)CCC3 [Compound 1]
- inhibition at 10 µM [1]: -6%
- GI50 [2]: 40.3 nM
- inhibition at 10 µM [3]: 5%
- inhibition at 10 µM [4]: -55%
- inhibition at 10 µM [5]: 3%
- GI50 [6]: 37.5 nM
- inhibition at 10 µM [7]: 5%
- GI50 [8]: 46.3 nM
- inhibition at 10 µM [9]: 11%
- inhibition at 10 µM [10]: -14%
- inhibition at 10 µM [11]: -18%
- GI50 [12]: 321 nM
- inhibition at 10 µM [13]: 12%
- inhibition at 10 µM [14]: -14%
- inhibition at 10 µM [15]: 13%
- inhibition at 10 µM [16]: -5%
- inhibition at 10 µM [17]: 17%
- inhibition at 10 µM [18]: -77%
- inhibition at 10 µM [19]: 12%
- inhibition at 10 µM [20]: -14%
- inhibition at 10 µM [21]: -27%
- inhibition at 10 µM [22]: -12%
- inhibition at 10 µM [23]: 1%
- inhibition at 10 µM [24]: 14%
- inhibition at 10 µM [25]: -26%
- GI50 [26]: 55 nM
- GI50 [27]: 74.2 nM
- inhibition at 10 µM [28]: 9%
- GI50 [29]: 22.9 nM
- inhibition at 10 µM [30]: 2%
- inhibition at 10 µM [31]: 0%
- GI50 [32]: 36.3 nM
- inhibition at 10 µM [33]: 17%
- inhibition at 10 µM [34]: 20%
- GI50 [35]: 18.7 nM
- inhibition at 10 µM [36]: 5%
- inhibition at 10 µM [37]: 26%
- inhibition at 10 µM [38]: -4%
- inhibition at 10 µM [39]: -5%
- inhibition at 10 µM [40]: -19%

From publication PMC6149898, “GPCR Modulation of Thieno[2,3-b]pyridine Anti-Proliferative Agents” (Molecules : A Journal of Synthetic Chemistry and Natural …, 2017)
